From patent US20180044305A1, “3-SUBSTITUTED 1,3,4-OXADIAZOLE AND THIADIAZOLE COMPOUNDS AS IMMUNOMODULATORS” (AURIGENE DISCOVERY TECHNOLOGIES LIMITED, priority 2015, published 2018)

Target: T1, Recombinant mouse PD-L1 (Mus musculus, UniProt Q9EP73)
T1 construct: Fc (Fc chimera); purchased R&D Systems 1019-B7-100
Test: Rescue of mouse splenocyte proliferation in the presence of recombinant PD-L1 (CFSE proliferation assay)
Type: cell-based
Settings: compound at 100 nM; CFSE-labelled mouse splenocytes + anti-CD3/CD28 + PD-L1, 72 h; normalised to stimulated splenocyte proliferation as 100%
Description: Example 3: Rescue of Mouse Splenocyte Proliferation in the Presence of Recombinant PD-L1
Recombinant mouse PD-L1 (rm-PDL-1, cat no: 1019-B7-100; R&D Systems) were used as the source of PD-L1.
Mouse splenocytes harvested from 6-8 weeks old C57 BL6 mice; RPMI 1640 (GIBCO, Cat #11875); DMEM with high glucose (GIBCO, Cat #D6429); Fetal Bovine Serum [Hyclone, Cat #SH30071.03]; Penicillin (10000 unit/mL)-Streptomycin(10,000 μg/mL) Liquid (GIBCO, Cat #15140-122); MEM Sodium Pyruvate solution 100 mM (100×), Liquid (GIBCO, Cat #11360); Nonessential amino acid (GIBCO, Cat #11140); L-Glutamine (GIBCO, Cat #25030); Anti-CD3 antibody (eBiosciences—16-0032); Anti-CD28 antibody (eBiosciences—16-0281); ACK lysis buffer (1 mL) (GIBCO, Cat #-A10492); Histopaque (density—1.083 gm/mL) (SIGMA 10831); Trypan blue solution (SIGMA-T8154); 2 mL Norm Ject Luer Lock syringe-(Sigma 2014-12); 40 µm nylon cell strainer (BD FALCON 35230); Hemacytometer (Bright line-SIGMA Z359629); FACS Buffer (PBS/0.1% BSA): Phosphate Buffered Saline (PBS) pH 7.2 (HiMedia TS1006) with 0.1% Bovine Serum Albumin (BSA) (SIGMA A7050) and sodium azide (SIGMA 08591); 5 mM stock solution of CFSE: CFSE stock solution was prepared by diluting lyophilized CFSE with […] of Dimethyl sulfoxide (DMSO C2H6SO, SIGMA-D-5879) and aliquoted in to tubes for further use. Working concentrations were titrated from […] to 1 μM. (eBioscience—650850-85); 0.05% Trypsin and 0.02% EDTA (SIGMA 59417C); 96-well format ELISA plates (Corning CLS3390); BD FACS caliber (E6016); Recombinant mouse B7-H1/PDL1 Fc Chimera, (rm-PD-L1 cat no: 1019-B7-100).
Splenocytes harvested in a 50 mL falcon tube by mashing mouse spleen in a 40 µm cell strainer were further treated with 1 mL ACK lysis buffer for 5 min at room temperature. After washing with 9 mL of RPMI complete media, cells were re-suspended in 3 mL of 1×PBS in a 15 mL tube. 3 mL of Histopaque was added carefully to the bottom of the tube without disturbing overlaying splenocyte suspension. After centrifuging at 800×g for 20 min at room temperature, the opaque layer of splenocytes was collected carefully without disturbing/mixing the layers. Splenocytes were washed twice with cold 1×PBS followed by total cell counting using Trypan Blue exclusion method and used further for cell based assays.
Splenocytes were cultured in RPMI complete media (RPMI+10% fetal bovine serum+1 mM sodium pyruvate+10,000 units/mL penicillin and […] streptomycin) and maintained in a CO2 incubator with 5% CO2 at 37° C.
CFSE is a dye that passively diffuses into cells and binds to intracellular proteins. 1×10^6 cells/mL of harvested splenocytes were treated with […] of CFSE in pre-warmed 1×PBS/0.1% BSA solution for 10 min at 37° C. Excess CFSE was quenched using 5 volumes of ice-cold culture media to the cells and incubated on ice for 5 min. CFSE labelled splenocytes were further given three washes with ice cold complete RPMI media. […] Cells were harvested and washed thrice with ice cold FACS buffer and % proliferation was analysed by flow cytometry with 488 nm excitation and 521 nm emission filters.
Percent splenocyte proliferation was analysed using cell quest FACS program and percent rescue of splenocyte proliferation by compound was estimated after deduction of % background proliferation value and normalising to % stimulated splenocyte proliferation (positive control) as 100%. […]

T1 sequence (Q9EP73 with tags, fused parts or gaps limits assumed): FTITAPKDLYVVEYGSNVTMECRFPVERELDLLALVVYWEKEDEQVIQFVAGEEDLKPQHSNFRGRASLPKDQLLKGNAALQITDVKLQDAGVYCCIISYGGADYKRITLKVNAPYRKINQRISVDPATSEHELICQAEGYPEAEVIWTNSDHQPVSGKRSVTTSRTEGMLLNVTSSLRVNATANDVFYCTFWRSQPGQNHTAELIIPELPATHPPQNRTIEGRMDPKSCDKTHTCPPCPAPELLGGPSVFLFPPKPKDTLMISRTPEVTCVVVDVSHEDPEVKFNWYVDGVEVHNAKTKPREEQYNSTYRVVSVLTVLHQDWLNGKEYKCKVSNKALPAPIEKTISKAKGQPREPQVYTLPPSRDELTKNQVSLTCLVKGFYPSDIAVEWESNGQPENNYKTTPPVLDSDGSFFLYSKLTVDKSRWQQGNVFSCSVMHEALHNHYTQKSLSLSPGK

In order of rising “Percent rescue of splenocyte proliferation (@100 nM)” value:
1. COc1ccccc1-c1nnc([C@H](CC(N)=O)NC(=O)N[C@H](C(=O)O)C(C)O)o1 (some centres unmarked) [Compound 16]  7%
2. COc1ccccc1-c1nnc([C@H](CC(N)=O)NC(=O)N[C@@H](CCSC)C(=O)O)o1 [Compound 12]  15%
3. CC(O)[C@H](NC(=O)N[C@H](c1nnc(-c2ccco2)o1)C(C)C)C(=O)O (some centres unmarked) [Compound 7]  28%
4. COc1ccccc1-c1nnc([C@H](CC(N)=O)NC(=O)N[C@@H](CCCCN)C(=O)O)o1 [Compound 11]  60%
5. CC(O)[C@H](NC(=O)N[C@@H](CC(N)=O)c1nnc(-c2cnccn2)o1)C(=O)O (some centres unmarked) [Compound 13]  63%
